Assay results as given in PubChem BioAssay AID2060600 (Molecular Pharmacology Branch, DTP, NCI, 2025).

Tested on: 996289-038-R-J1-PDC complex spheroid viability
Experiment: Anticancer human tumor 996289-038-R-J1-PDC patient-derived colon adenocarcinoma cell line growth inhibition [CLK]
Conditions: for IC50: curve of first compound; for viability, T/C: stronger effect = lower value
Procedure, shortened: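 Patient-derived tumor cells grown as complex spheroids with HUVEC endothelial cells and mesenchymal stem cells, treated with drug combinations. Concentrations descend in half-log steps from near clinical Cmax, or from 10 microM if Cmax unknown.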

[1] = second compound 0.0316 µM, first compound 0.0316 µM
[2] = second compound 0.0316 µM, first compound 0.1 µM
[3] = second compound 0.0316 µM, first compound 0.316 µM
[4] = second compound 0.0316 µM, first compound 1 µM
[5] = second compound 0.0316 µM, first compound 3.16 µM
[6] = second compound 0.0316 µM, first compound 10 µM
[7] = second compound 0.1 µM, first compound 0.0316 µM
[8] = second compound 0.1 µM, first compound 0.1 µM
[9] = second compound 0.1 µM, first compound 0.316 µM
[10] = second compound 0.1 µM, first compound 1 µM
[11] = second compound 0.1 µM, first compound 3.16 µM
[12] = second compound 0.1 µM, first compound 10 µM
[13] = second compound 0.316 µM, first compound 0.0316 µM
[14] = second compound 0.316 µM, first compound 0.1 µM
[15] = second compound 0.316 µM, first compound 0.316 µM
[16] = second compound 0.316 µM, first compound 1 µM
[17] = second compound 0.316 µM, first compound 3.16 µM
[18] = second compound 0.316 µM, first compound 10 µM
[19] = second compound 1 µM, first compound 0.0316 µM
[20] = second compound 1 µM, first compound 0.1 µM
[21] = second compound 1 µM, first compound 0.316 µM
[22] = second compound 1 µM, first compound 1 µM
[23] = second compound 1 µM, first compound 3.16 µM
[24] = second compound 1 µM, first compound 10 µM
[25] = second compound 3.16 µM, first compound 0.0316 µM
[26] = second compound 3.16 µM, first compound 0.1 µM
[27] = second compound 3.16 µM, first compound 0.316 µM
[28] = second compound 3.16 µM, first compound 1 µM
[29] = second compound 3.16 µM, first compound 3.16 µM
[30] = second compound 3.16 µM, first compound 10 µM
[31] = second compound 10 µM, first compound 0.0316 µM
[32] = second compound 10 µM, first compound 0.1 µM
[33] = second compound 10 µM, first compound 0.316 µM
[34] = second compound 10 µM, first compound 1 µM
[35] = second compound 10 µM, first compound 3.16 µM
[36] = second compound 10 µM, first compound 10 µM
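Further: spheroids exposed to the agents for 7 days before readout.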

Question: What does the source list for `C#Cc1c(F)ccc2cc(O)cc(-c3ncc4c(N5CC6CCC(C5)N6)nc(OCC56CCCN5CC(F)C6)nc4c3F)c12` (centres undefined) + CNC(=O)c1ccc(Nc2nc(OC3CCCC3)c3c(-c4ccc5nc(C)oc5c4)c[nH]c3n2)c(OC)c1?
Answer: IC50 (second compound 0.0316 µM): 1820 nM; IC50 (second compound 0.1 µM): 503 nM; IC50 (second compound 0.316 µM): 99.1 nM; IC50 (second compound 1 µM): < 31.6 nM; IC50 (second compound 3.16 µM): < 31.6 nM; IC50 (second compound 10 µM): < 31.6 nM; viability, T/C [1]: 107%; viability, T/C [2]: 93.2%; viability, T/C [3]: 71%; viability, T/C [4]: 62.4%; viability, T/C [5]: 40%; viability, T/C [6]: 29.3%; viability, T/C [7]: 106%; viability, T/C [8]: 77.1%; viability, T/C [9]: 55.9%; viability, T/C [10]: 42.4%; viability, T/C [11]: 32.2%; viability, T/C [12]: 30.5%; viability, T/C [13]: 60.7%; viability, T/C [14]: 50.4%; viability, T/C [15]: 35.6%; viability, T/C [16]: 28.3%; viability, T/C [17]: 25.5%; viability, T/C [18]: 22.4%; viability, T/C [19]: 33.8%; viability, T/C [20]: 26.5%; viability, T/C [21]: 25.4%; viability, T/C [22]: 21.5%; viability, T/C [23]: 22.1%; viability, T/C [24]: 20.6%; viability, T/C [25]: 28.3%; viability, T/C [26]: 24.3%; viability, T/C [27]: 24.5%; viability, T/C [28]: 21.4%; viability, T/C [29]: 22.9%; viability, T/C [30]: 17.8%; viability, T/C [31]: 28.7%; viability, T/C [32]: 23.1%; viability, T/C [33]: 20.2%; viability, T/C [34]: 22.3%; viability, T/C [35]: 22.8%; viability, T/C [36]: 17.9%

Question: What does the source list for `CC(CO)NC(=O)c1cc(-c2ccc(Cl)cc2)nn(-c2cnn(C)c2)c1=O` (centres undefined) + CNC(=O)c1ccc(Nc2nc(OC3CCCC3)c3c(-c4ccc5nc(C)oc5c4)c[nH]c3n2)c(OC)c1?
Answer: IC50 (second compound 0.0316 µM): > 10000 nM; IC50 (second compound 0.1 µM): > 10000 nM; IC50 (second compound 0.316 µM): > 10000 nM; IC50 (second compound 1 µM): > 10000 nM; IC50 (second compound 3.16 µM): > 10000 nM; IC50 (second compound 10 µM): > 10000 nM; viability, T/C [1]: 117%; viability, T/C [2]: 111%; viability, T/C [3]: 108%; viability, T/C [4]: 117%; viability, T/C [5]: 109%; viability, T/C [6]: 99.6%; viability, T/C [7]: 131%; viability, T/C [8]: 113%; viability, T/C [9]: 116%; viability, T/C [10]: 95.4%; viability, T/C [11]: 101%; viability, T/C [12]: 83.7%; viability, T/C [13]: 79.8%; viability, T/C [14]: 76.9%; viability, T/C [15]: 73.2%; viability, T/C [16]: 71.4%; viability, T/C [17]: 72.7%; viability, T/C [18]: 68.9%; viability, T/C [19]: 64.2%; viability, T/C [20]: 63.7%; viability, T/C [21]: 57.8%; viability, T/C [22]: 57.5%; viability, T/C [23]: 57.5%; viability, T/C [24]: 49%; viability, T/C [25]: 58.2%; viability, T/C [26]: 57.6%; viability, T/C [27]: 55.3%; viability, T/C [28]: 54.7%; viability, T/C [29]: 56.9%; viability, T/C [30]: 48.3%; viability, T/C [31]: 52.4%; viability, T/C [32]: 56.9%; viability, T/C [33]: 56.2%; viability, T/C [34]: 58.5%; viability, T/C [35]: 55.5%; viability, T/C [36]: 44.8%
